Data from US20200383985A1, “Inhibitors of Protease Activated Receptor-2” (Endosome Therapeutics, Inc., priority 2017, published 2020).
Like-named read-outs stand apart in the source and are kept apart here. Starred links: 1 amine or outer side, 2 acyl side, 3 side chain; linkers in the order of their positions; H or OH if unused. Positions of bridges follow the written chain, without caps; N, C: chain ends. Non-standard residues stand in square brackets, D forms with d. Residues, ends and D or L forms follow the SMILES beside them. *: point of attachment. Leu(3R-OH,Nα-propionyl) = CCC(=O)N[C@H](C(=O)*)[C@H](O)C(C)C; X1 = CC(C)[C@@H](O[*:3])[C@H](N[*:1])C(=O)[*:2]; NMeT = CN[C@H](C(=O)O)[C@@H](C)O; dPhLac = O=C(O)[C@H](O)Cc1ccccc1; NMeA = CN[C@@H](C)C(=O)O; NMeDha = C=C(NC)C(=O)O

Experiments:
Type in all cases: cell-based
[1] = system: cytosolic and nuclear ERK; test: FRET assays of cytosolic and nuclear ERK in HEK293 cells; details: UBO-QIC 100 nM, G66983 1 μM; for trypsin-stimulated activation of cytosolic ERK: AG1478 1 μM
Experimental: Trypsin-induced ERK signaling mediated by endosomal PAR2 signaling was investigated in HEK293 cells expressing Flag-PAR2-HA11 and FRET biosensors for cytosolic and nuclear ERK (CytoEKAR, NucEKAR), plasma membrane and cytosolic PKC (pmCKAR, CytoCKAR), and plasma membrane and cytosolic cAMP (pmEpac, CytoEpac). […] I-343 (10 μM) but not SCH530348 (100 nM) inhibited trypsin activation of cytosolic and nuclear ERK (FIG. 5G). PS2 and DynK44E inhibited trypsin-stimulated activation of cytosolic and nuclear ERK when compared to PS2 inact and DynWT controls (FIG. 5H, 5I, 17G-J). AG1478 (1 μM), an inhibitor of EGF receptor tyrosine kinase (Levitzki, A. & Gazit, A. Science 1995, 267(5205): 1782-1788), UBO-QIC (100 nM), which inhibits Gαq and certain Gβγ signals ([…]), and G66983 (1 μM), which inhibits all isoforms of PKC (Gschwendt, M, et al., FEBS Lett 1996, 392(2): 77-80), suppressed trypsin-stimulated activation of cytosolic ERK (FIGS. 5J and 17K).
HEK293 cells were cultured in DMEM supplemented with 10% (v/v) FBS (5% CO2, 37° C.). When necessary serum restriction was achieved by replacing culture medium with DMEM containing 0.5% FBS overnight. Cells were transiently transfected using polyethylenimine (PEI) (1:6 DNA:PEI).
HEK293 cells were transiently transfected in 10 cm dishes (˜50% confluency) with Flag-PAR2-HA (2.5 μg) and FRET biosensors CytoEKAR or NucEKAR (2.5 μg) (Jensen, D. D. et al., Sci Transl Med. 2017, 9(392), eaal3447; Thomsen, A. R. B., et al., Cell 2016, 166(4): 907-919). In experiments examining the role of dynamin, cells were transfected with FLAG-PAR2-HA (1.25 μg), FRET biosensor (1.25 μg) and either DynWT-HA, DynK44E-HA or pcDNA3.1 (2.5 μg). At 24 h after transfection, cells were seeded on ViewPlate-96 well plates (PerkinElmer). FRET was assessed 72 h post-transfection, following overnight serum restriction. Cells were equilibrated in HBSS-HEPES (30 min, 37° C.). FRET was measured using a PHERAstar FSX Microplate Reader (BMG LabTech). For CFP/YFP emission ratio analysis, cells were sequentially excited using a CFP filter (425/10 nm) with emission measured using YFP (550/50 nm) and CFP (490/20 nm) filters. FRET was measured before and after stimulation with trypsin (10 nM), NE (100 nM), CS (100 nM), phorbol 12,13-dibutyrate, PDBu (positive control, 1 μM), or vehicle. FRET ratios (donor/acceptor intensity for EKAR, or acceptor/donor intensity for CKAR and Epac) were calculated and corrected to baseline and vehicle treatments to determine ligand-induced FRET (ΔFRET). Treatment effects were determined by comparison of area under the curve values. Signalling inhibitors were dissolved in HBSS-HEPES. PS2 and PS2 inact were dissolved in HBSS-HEPES+1% DMSO. Cells were incubated with UBO-QIC (100 nM), AG1478 (1 μM), G66983 (1 μM), PS2 or PS2 inact (30 μM) or vehicle (30 min preincubation, inclusion throughout).

human (h) PAR2 = biological target: T1, human (h) PAR2 (Homo sapiens, UniProt P55085); test: IP1 accumulation assay in KNRK-hPAR2 cells; details: 100 nM 2F; 30 μM of antagonist; read-out: KNRK-PAR2 100 nM 2F: ND (inhibition of 2F at 30 μM of antagonist)
T1 construct: expressed in transfected cells; host or cells: KNRK cells (KNRK-hPAR2)
T1 sequence (P55085 26-397): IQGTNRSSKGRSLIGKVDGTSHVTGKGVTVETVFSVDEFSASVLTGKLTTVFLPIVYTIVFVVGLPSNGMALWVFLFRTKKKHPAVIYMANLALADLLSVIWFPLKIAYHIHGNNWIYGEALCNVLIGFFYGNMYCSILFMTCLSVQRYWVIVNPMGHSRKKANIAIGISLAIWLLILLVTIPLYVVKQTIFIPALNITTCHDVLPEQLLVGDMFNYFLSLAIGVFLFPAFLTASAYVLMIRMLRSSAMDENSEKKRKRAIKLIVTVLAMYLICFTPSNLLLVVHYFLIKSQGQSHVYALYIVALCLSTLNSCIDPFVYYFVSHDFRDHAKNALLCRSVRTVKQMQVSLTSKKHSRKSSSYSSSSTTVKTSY
Experimental: (§1) KNRK-hPAR2, KNRK or HT-29 cells were seeded at a density of 50×10^3 cells/well in a clear poly-d-lysine coated 96 well tissue culture plate. Following 24 h incubation at 37° C. and 5% CO2, media was removed and replaced with 80 μl IP1 stimulation buffer (10 mM HEPES, 1 mM CaCl2, 0.5 mM MgCl2, 4.2 mM KCl, 146 mM NaCl, 5.5 mM glucose, 50 mM LiCl). Following stimulation buffer addition, the wells received 10 μl of 10× antagonists or DMSO vehicle. All plates were further incubated at 37° C., 5% CO2 for 30 min. 10 μl of 2F or ATP was added to the plates and further incubated for 40 min. Following incubation, stimulation buffer was quickly removed by aspiration and replaced with 25 μl lysis buffer (IP-One HTRF® assay kit, Cisbio). Following incubation of the lysates at 37° C., 5% CO2 for 10′, 10 μl lysate was transferred to a 384-well OptiPlate (PerkinElmer) and detected using the IP-One HTRF® assay kit (Cisbio).
(§2) Compounds of the invention (added at 10×concentrations in a 10 μL volume) were incubated for 30 min prior to the addition of 10 μM ATP or 100 nM or 300 nM PAR2 agonist (2F; EC80, added at 10×concentrations in a 10 μL volume) and then further incubated for 40 min. After lysis, the inositol phosphate 1 was quantified with IP-One HTRF® assay kit, Cisbio. The data was analysed with Prism, GraphPad to calculate the IC50 values, shown below in Table 1.
(§3) Inhibition of PAR2 signaling with known PAR2 inhibitor I-343 (FIG. 14A) was investigated in HT-29 cells and HEK293 cells, which express endogenous PAR2, and in KNRK cells expressing human (h) PAR2. Accumulation of inositol phosphate-1 (IP1) was measured in response to the PAR2-selective agonist 2-Furoyl-LIGRLO-NH2 (2F), an analogue of the trypsin-exposed tethered ligand, or trypsin.
(§4) KNRK-hPAR2, KNRK, HEK293, or HT-29 cells were seeded at a density of 50×10^3 cells/well onto clear 96-well plates (PerkinElmer). After 24 h of culture, medium was replaced with IP1 stimulation buffer (10 mM HEPES, 1 mM CaCl2, 0.5 mM MgCl2, 4.2 mM KCl, 146 mM NaCl, 5.5 mM glucose, 50 mM LiCl; 37° C., 5% CO2.). Cells were pre-incubated with the antagonist or vehicle for 30 min prior to the addition of agonist. Cells were then further incubated for 40 min. Stimulation buffer was […]

PAR2 = biological target: T2, PAR2 (Homo sapiens, UniProt P55085); test: IP1 accumulation assay in HT-29 cells (endogenous PAR2); details: 2F (300 nM)-induced IP1, HT-29 cells
T2 construct: HT-29 cells and HEK293 cells, which express endogenous PAR2; endogenous in cells; host or cells: HT-29
T2 sequence (P55085 26-397): T1 sequence (P55085 26-397)
Experimental: as §1, §2, §3, §4

[2] = read-out: HT-29 300 nM 2F (IC50)

SMILES	trypsin-stimulated activation of cytosolic ERK [1]	inhibition at 30 µM (human (h) PAR2) [%]	IC50 (PAR2; [2]) [nM]	IC50 (PAR2; read-out: HT-29 300 nM 2F pIC50 ± SEM (converted)) [nM]	trypsin-stimulated activation of nuclear ERK [1]
COc1cc2ncnc(Nc3cccc(Cl)c3)c2cc1OC [AG1478]	suppressed				
CC(C)CCC[C@@H](C)[C@H]1CCC2C3CCC4C[C@@H](OC(=O)C[C@H](NC(=O)CCOCCOCCOCCOCCOCCOCCOCCOCCNC(=O)CCCNC(=O)Cn5cc(C(=O)N6CCN(C(=O)c7cn8nc(-c9ccc(F)cc9)cc(C(C)(C)C)c8n7)C(C)(C)C6)nn5)C(N)=O)CC[C@]4(C)C3CC[C@@]21C (stereo partly drawn) [Compound 13, (3S,10S,13R,17R)-10,13-dimethyl-17-((R)-6-methylheptan-2-yl)hexadecahydro-1H-cyclopenta[a]phenanthren-3-yl (37S)-1-(4-(4-(8-(tert-butyl)-6-(4-fluorophenyl)imidazo[1,2-b]pyridazine-2-carbonyl)-3,3-dimethylpiperazine-1-carbonyl)-1H-1,2,3-triazol-1-yl)-37-carbamoyl-2,7,35-trioxo-11,14,17,20,23,26,29,32-octaoxa-3,8,36-triazanonatriacontan-39-oate]		< 50	736		
CC(C)CCC[C@@H](C)[C@H]1CC[C@H]2[C@@H]3CCC4CC(OC(=O)C[C@H](NC(=O)CCOCCOCCOCCOCCOCCOCCNC(=O)[C@H](CCCNC(=N)N)NC(=O)CCOCCOCCOCCOCCOCCOCCNC(=O)Cn5cc(C(=O)N6CCN(C(=O)c7cn8nc(-c9ccc(F)cc9)cc(C(C)(C)C)c8n7)C(C)(C)C6)nn5)C(N)=O)CC[C@]4(C)[C@H]3CC[C@]12C (stereo partly drawn) [Compound 14]		< 50	1550		
CCCCCCCCCCCCCCCCNC(=O)C[C@H](NC(=O)CCOCCOCCOCCOCCOCCOCCOCCOCCOCCOCCOCCOCCNC(=O)Cn1cc(C(=O)N2CCN(C(=O)c3cn4nc(-c5ccc(F)cc5)cc(C(C)(C)C)c4n3)C(C)(C)C2)nn1)C(N)=O [Compound 15, (S)-3-(1-(4-(4-(8-(tert-butyl)-6-(4-fluorophenyl)imidazo[1,2-b]pyridazine-2-carbonyl)-3,3-dimethylpiperazine-1-carbonyl)-1H-1,2,3-triazol-1-yl)-2-oxo-6,9,12,15,18,21,24,27,30,33,36,39-dodecaoxa-3-azadotetracontan-42-amido)-N1-hexadecylsuccinamide]		< 50		47.2	
CC(C)CCC[C@@H](C)[C@H]1CC[C@H]2[C@@H]3CC[C@@H]4C[C@@H](OC(=O)C[C@H](NC(=O)CCOCCOCCOCCOCCOCCOCCNC(=O)[C@@H](O)[C@H](O)[C@H](O)[C@@H](O)C(=O)NC5CCC(C(=O)N6CCN(C(=O)c7cn8nc(-c9ccc(F)cc9)cc(C(C)(C)C)c8n7)C(C)(C)C6)CC5)C(N)=O)CC[C@]4(C)[C@H]3CC[C@]12C (stereo partly drawn) [Compound 16, (3S,5R,8R,9S,10S,13R,14S,17R)-10,13-dimethyl-17-((R)-6-methylheptan-2-yl)hexadecahydro-1H-cyclopenta[a]phenanthren-3-yl (3S,28S,29R,30S,31R)-32-((4-(4-(8-(tert-butyl)-6-(4-fluorophenyl)imidazo[1,2-b]pyridazine-2-carbonyl)-3,3-dimethylpiperazine-1-carbonyl)cyclohexyl)amino)-3-carbamoyl-28,29,30,31-tetrahydroxy-5,27,32-trioxo-8,11,14,17,20,23-hexaoxa-4,26-diazadotriacontanoate]		< 50	2070		
CC(C)CCC[C@@H](C)[C@H]1CC[C@H]2[C@@H]3CC=C4C[C@@H](OC(=O)NCCCC[C@@H](NC(=O)CCOCCOCCOCCOCCOCCOCCOCCOCCOCCOCCOCCOCCNC(=O)Cn5cc(C(=O)N6CCN(C(=O)c7cn8nc(-c9ccc(F)cc9)cc(C(C)(C)C)c8n7)C(C)(C)C6)nn5)C(=O)NN)CC[C@]4(C)[C@H]3CC[C@]12C [Compound 17]		< 50	5630		
COc1ccc2c(c1)c(C1=C(c3c[nH]c4ccccc34)C(=O)NC1=O)cn2CCCN(C)C [Compound G66983]	suppressed				inhibited
C=C1C(=O)N[C@@H](C)C(=O)N(C)[C@@H](C)C(=O)N[C@@H]([C@H](OC(=O)[C@@H](NC(=O)CC)[C@H](O)C(C)C)C(C)C)C(=O)N(C)[C@@H]([C@@H](C)OC)C(=O)O[C@H](C(C)C)[C@H](NC(C)=O)C(=O)O[C@H](Cc2ccccc2)C(=O)N1C [UBO-QIC] (Ac-[X1][dPhLac][NMeDha]A[NMeA][X1](Leu(3R-OH,Nα-propionyl))[NMeT](Me); ester 1-C)	suppressed				inhibited
